# Measurements published in US9216216B2, “LprG as a chaperone of immune adjuvants” (Case Western Reserve University, priority 2009, dated 2015).
# “Also recorded” adds a separate entry of the source.
# B1: LprG: Mtb lipoprotein LprG (SEQ ID NO: 2), recombinant 6×His-tagged acylated form (protein, listed as Mycobacterium smegmatis)
# chain: MLGMQTRRRLSAVFASLTLATALIAGCSSGSKQSGAPLPDPTSLVKQSADATKNVKSVHLVLSIQGKISGLPIKTLTGDLTTTPATAAKGNATITLGGSDIDANFVVVDGTLYATLTPNKWSDFGKASDIYDVSVLLNPDNGLGNALANFSNAKAEGRETINGQSTIRISGNVSADAVNKIMPQFNATQPVPSTVWVQETGDHQLVQANLQKSSGNSVQVTLSNWGEQVQVTKPPVSS
# modifications: 6xHis tag; acylated
# B2: Acylated LprG-V91W: acylated LprG with the V91W mutation of the putative glycolipid binding site (protein, UniProt P9WK45 27-236, looked up, variant V91W)
# Lipoarabinomannan carrier …: CSSGSKPSGGPLPDAKPLVEEATAQTKALKSAHMVLTVNGKIPGLSLKTLSGDLTTNPTAATGNWKLTLGGSDIDADFVVFDGILYATLTPNQWSDFGPAADIYDPAQVLNPDTGLANVLANFADAKAEGRDTINGQNTIRISGKVSAQAVNQIAPPFNATQPVPATVWIQETGDHQLAQAQLDRGSGNSVQMTLSKWGEKVQVTKPPVS
# Tests used:
# [1] = test system: bone marrow-derived macrophages; format: cell-based, mice
# [2] = biological target: T1, TLR2 (Homo sapiens, UniProt O60603+Q15399); format: cell-based
# T1 construct: YFP; expressed in transfected cells
# T1 sequence (O60603 21-784, species assumed): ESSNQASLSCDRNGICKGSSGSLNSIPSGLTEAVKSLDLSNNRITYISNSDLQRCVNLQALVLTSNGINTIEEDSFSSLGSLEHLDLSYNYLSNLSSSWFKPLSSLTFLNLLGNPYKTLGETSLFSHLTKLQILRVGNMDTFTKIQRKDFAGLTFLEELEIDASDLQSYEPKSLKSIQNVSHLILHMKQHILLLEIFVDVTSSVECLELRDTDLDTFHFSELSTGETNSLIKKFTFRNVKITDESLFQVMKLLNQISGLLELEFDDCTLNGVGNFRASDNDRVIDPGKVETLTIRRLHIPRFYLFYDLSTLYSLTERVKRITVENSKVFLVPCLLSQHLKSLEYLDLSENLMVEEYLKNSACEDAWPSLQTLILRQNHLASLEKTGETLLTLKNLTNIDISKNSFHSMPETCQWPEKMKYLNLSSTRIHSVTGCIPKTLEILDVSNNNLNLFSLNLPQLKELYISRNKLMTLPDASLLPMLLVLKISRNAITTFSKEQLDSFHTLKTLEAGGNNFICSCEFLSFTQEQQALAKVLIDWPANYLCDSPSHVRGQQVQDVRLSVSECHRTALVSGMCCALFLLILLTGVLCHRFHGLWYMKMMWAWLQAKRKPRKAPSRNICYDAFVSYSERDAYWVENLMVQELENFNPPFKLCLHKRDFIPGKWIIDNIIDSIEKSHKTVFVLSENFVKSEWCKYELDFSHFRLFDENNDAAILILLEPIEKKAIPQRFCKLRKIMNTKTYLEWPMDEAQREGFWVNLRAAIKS
# T1 sequence (Q15399 25-786, species assumed): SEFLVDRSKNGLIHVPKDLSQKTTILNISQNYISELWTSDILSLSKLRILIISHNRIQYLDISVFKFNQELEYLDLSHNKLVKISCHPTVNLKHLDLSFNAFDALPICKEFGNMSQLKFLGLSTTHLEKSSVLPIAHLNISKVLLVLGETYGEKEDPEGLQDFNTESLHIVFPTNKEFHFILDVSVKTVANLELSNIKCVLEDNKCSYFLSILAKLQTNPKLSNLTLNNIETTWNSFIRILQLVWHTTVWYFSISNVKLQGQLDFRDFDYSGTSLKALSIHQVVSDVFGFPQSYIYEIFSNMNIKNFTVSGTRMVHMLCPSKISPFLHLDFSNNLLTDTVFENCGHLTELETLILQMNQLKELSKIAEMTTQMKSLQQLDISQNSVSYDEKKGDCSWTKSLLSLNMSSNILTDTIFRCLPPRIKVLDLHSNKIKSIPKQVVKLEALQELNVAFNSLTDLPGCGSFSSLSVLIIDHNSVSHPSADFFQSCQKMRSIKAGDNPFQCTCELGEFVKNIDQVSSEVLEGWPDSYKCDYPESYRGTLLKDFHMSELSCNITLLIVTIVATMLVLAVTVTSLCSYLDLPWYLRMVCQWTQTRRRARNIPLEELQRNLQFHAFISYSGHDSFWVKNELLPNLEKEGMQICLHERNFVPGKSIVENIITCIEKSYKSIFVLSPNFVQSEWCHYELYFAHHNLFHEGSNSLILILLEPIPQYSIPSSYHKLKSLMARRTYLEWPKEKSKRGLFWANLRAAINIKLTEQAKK
# [3] = biological target: T1, TLR2; format: cell-based; remark: listed apart in the source
molecule,measurement,setting,value
CpG ODN 1826,TLR dependence of macrophage TNFα response,[1],intact in knockout cell lines; also recorded: All macrophage types responded
FSL-1,TLR dependence of macrophage TNFα response,[1],"dependent on TLR2 and TLR6, but not TLR1"
B1,TLR2 agonist activity (IL-8 response),[2],"dose-dependent IL-8 response; also recorded: more potent TLR2 agonist than a homologous Mtb lipoprotein, LprA"
B2,TLR2 agonist activity of acylated protein,[3],significantly less potent than wild-type acylated LprG
